Measured values published in patent US20250345311A1, “CONJUGATE OF POLYPEPTIDE AND SMALL MOLECULE TARGETING KRAS AND ANTI-CANCER APPLICATION THEREOF” (Guangzhou Medical University, priority 2024, published 2025).
Like-named read-outs stand apart in the source and are kept apart here. One block for each molecule: values may come before it.

What was measured:
Format in all cases: cell-based
H358 cells [1] = test: cells
Protocol: The cytotoxicity of HGPF, cyclic peptide (CLYDVAGSDKYCGP), FN1-8, and FN1-8 methylamino derivative (FN1-8-CH2-NH2) was detected through CCK8 experiment. The cyclic peptide (CLYDVAGSDKYCGP) has a sequence shown in SEQ ID NO: 4, and it is Cys-Leu-Tyr-Asp-Val-Ala-Gly-Ser-Asp Lys-Tyr-Cys-Gly-Pro. The experimental steps are as follows:
8.1 Plate laying: Inoculate H358 cells in logarithmic growth phase into a 96-well plate (100 μl/well), with 6 replicate wells per group and a cell count of 5×10^3 cells per well, then place and culture in a 37° C., 5% CO2 incubator for 12 hours.
8.2 Use different concentrations of HGPF, HGPF+FAPα, cyclic peptides, FN1-8, and FN1-8-CH2-NH2 to treat with the experimental group. First, prepare the above drugs into a 100 mM mother solution, and then set […], namely 100 μM, 50 μM, 25 μM, 12.5 μM, 6.25 μM, 3.125 μM, 1.5625 μM, and 0.78125 μM, wherein the HGPF+FAPα group was the group added FAPα (1 μM) after adding the above concentrations of HGPF to simulate the tumor tissue microenvironment.
8.3 After 24 hours, wash the cells twice with PBS, then add 100 μL of pre-mixed CCK8 solution (culture medium:CCK8 working solution=9:1) to each well, and then continue to culture in a 37° C., 5% CO2 incubator for 2 hours.
8.4 Use a microplate reader to measure the absorbance D (2) of each well at a wavelength of 450 nm. Analyze the D (2) values of the blank group, the control group, and the experimental group to determine cellular activity. The cell survival rate reflects the cytotoxicity of drugs. The groups are as follows: • Experimental group (culture medium containing cells, CCK-8, test drug) • Control group (culture medium containing cells, CCK-8, without test drug) • Blank group (culture medium without cells and test substance, containing CCK-8)

H358 cells [2] = test: Scratch test, proliferation and migration of lung cancer cells; details: H358, 10 μM, 24 hours
Protocol: The inhibitory effects of the conjugate HGPF and cyclic peptide (CLYDVAGSDKYCGP) on the proliferation and migration of lung cancer cells were detected by scratch test. The experimental steps are as follows:
9.1 Plate laying: First, mark 3 positioning lines at the bottom of the 6-well plate, then inoculate H358 cells in logarithmic growth phase onto the 6-well plate (2 ml/well), with a cell count of 1×10^6 per well, and then culture in a 37° C., 5% CO2 incubator for 24 hours.
9.2 Marking: Place the plate cover above the 6-well plate, use a 100μ pipettor tip to draw 3 straight lines vertically for each hole; then wash 4 times with PBS to wash away floating cell debris.
9.3 Administration: Replace the culture medium with a medium containing 2% serum, administer 10 μM of the drug to each group, take photos at 0 and 24 hours, observe scratch healing, and analyze with ImageJ software.

[3] = system: lung cancer cell line H358 (carrying KRAS G12C mutation); test: Uptake of HGP-FITC by lung cancer cells, flow cytometry; details: different concentrations, 8 hours
Protocol: 6.2 Incubate lung cancer cell line H358 (carrying KRAS G12C mutation) with different concentrations of HGP-FITC, and detect by flow cytometry after 8 hours.

KRAS G12C = target: T1, KRAS G12C (Homo sapiens, UniProt P01116, G12C); test: Specificity of HGP-FITC targeting KRAS G12C (pre-blocking, flow cytometry); details: then 25 μM HGP-FITC, 8 hours
T1 construct: endogenous in cells; host or cells: H358 lung cancer cells
Protocol: 6.3 Based on the flow cytometry results, select a concentration of 25 μM for subsequent experiments. The lung cancer cell line H358 (carrying KRAS G12C mutation) was first blocked with 1:1000 KRAS antibody or 10 μM Sotorasib (KRAS G12C inhibitor) for 24 hours, and then incubated with 25 μM HGP-FITC. Fluorescence uptake was detected by flow cytometry after 8 hours.

T1 sequence (P01116 1-188 isoform P01116-2 G12C): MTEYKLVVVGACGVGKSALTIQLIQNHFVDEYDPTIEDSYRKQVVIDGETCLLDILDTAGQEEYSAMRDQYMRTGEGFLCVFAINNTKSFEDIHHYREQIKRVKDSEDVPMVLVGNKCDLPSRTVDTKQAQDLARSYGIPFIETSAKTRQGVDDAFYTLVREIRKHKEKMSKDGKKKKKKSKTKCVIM

SMILES: CC(C)C[C@@H]1NC(=O)[C@@H](N)CSSC[C@@H](C(=O)NCC(=O)N2CCC[C@H]2C(=O)O)NC(=O)[C@H](Cc2ccc(O)cc2)NC(=O)[C@H](CCCCN)NC(=O)[C@H](CC(=O)O)NC(=O)[C@H](CO)NC(=O)CNC(=O)[C@H](C)NC(=O)[C@H](C(C)C)NC(=O)[C@H](CC(=O)O)NC(=O)[C@H](Cc2ccc(O)cc2)NC1=O [cyclic peptide, Cys-Leu-Tyr-Asp-Val-Ala-Gly-Ser-Asp Lys-Tyr-Cys-Gly-Pro]
cytotoxicity against lung cancer cells (H358 cells [1]): weak cytotoxicity
inhibitory effect on proliferation and migration of tumor cells (H358 cells [2]; without FAPα): no inhibitory effect

IC50 (H358 cells [1]; Homo sapiens, NCI-H358, H358, 24 hours, CCK8, read-out: IC50): 4.68 µM
SMILES: NCc1ccc(CNC(=O)C2C(c3ccccc3)=NN(c3ccccc3)C2c2ccccc2)cc1 (stereo not drawn) [FN1-8-CH2-NH2]
cytotoxicity against lung cancer cells (H358 cells [1]): good cytotoxicity
inhibition at 100 µM (H358 cells [1]; Homo sapiens, NCI-H358, 100 μM, 24 hours, read-out: inhibition rate on H358 cells): 100%

uptake of HGP-FITC by H358 cells after pre-block with Sotorasib (KRAS G12C; 10 μM Sotorasib 24 hours): significantly reduced
uptake of HGP-FITC by H358 cells after pre-block with KRAS antibody (KRAS G12C; 1:1000 KRAS antibody 24 hours): significantly reduced
SMILES: CC(C)C[C@@H]1NC(=O)[C@@H](N)CSSC[C@@H](C(=O)NCC(=O)N2CCC[C@H]2C(=O)NCCCCC(NC(=S)Nc2ccc3c(c2)C(=O)OC32c3ccc(O)cc3Oc3cc(O)ccc32)C(=O)O)NC(=O)[C@H](Cc2ccc(O)cc2)NC(=O)[C@H](CCCCN)NC(=O)[C@H](CC(=O)O)NC(=O)[C@H](CO)NC(=O)CNC(=O)[C@H](C)NC(=O)[C@H](C(C)C)NC(=O)[C@H](CC(=O)O)NC(=O)[C@H](Cc2ccc(O)cc2)NC1=O (stereo partly drawn) [HGP-FITC]
uptake of HGP-FITC by H358 cells [3]: concentration dependent manner

IC50 (H358 cells [1]; 24 h): 3.66 µM
SMILES: CC(C)C[C@@H]1NC(=O)[C@@H](N)CSSC[C@@H](C(=O)NCC(=O)N2CCC[C@H]2C(=O)NCc2ccc(CNC(=O)C3C(c4ccccc4)C(c4ccccc4)=NN3c3ccccc3)cc2)NC(=O)[C@H](Cc2ccc(O)cc2)NC(=O)[C@H](CCCCN)NC(=O)[C@H](CC(=O)O)NC(=O)[C@H](CO)NC(=O)CNC(=O)[C@H](C)NC(=O)[C@H](C(C)C)NC(=O)[C@H](CC(=O)O)NC(=O)[C@H](Cc2ccc(O)cc2)NC1=O (stereo partly drawn) [HGPF]
cytotoxicity against lung cancer cells (H358 cells [1]): weak cytotoxicity
inhibitory effect on proliferation and migration of tumor cells (H358 cells [2]; with FAPα): significantly inhibited
inhibitory effect on proliferation and migration of tumor cells (H358 cells [2]; without FAPα): no inhibitory effect

SMILES: O=C(NCc1ccc(O)cc1)C1C(c2ccccc2)=NN(c2ccccc2)C1c1ccccc1 (stereo not drawn) [FN1-8, reference compound]
cytotoxicity against lung cancer cells (H358 cells [1]): good cytotoxicity
effect of further increasing the concentration on cell viability (H358 cells [1]; H358, 24 hours, up to 100 μM): cannot achieve the effect of completely inhibiting cell viability
IC50 (H358 cells [1]; Homo sapiens, NCI-H358, 24 h): 4.34 µM
